Experimental data: patent US20220023273A1, “METHODS FOR TREATING SYMPTOMS AND DISORDERS ASSOCIATED WITH LYSOSOMAL STORAGE DISEASES” (GENZYME CORPORATION, priority 2019, published 2022)

Test system: adult male Fabry patients
Test: Fabry clinical study: SF-36 bodily pain and abdominal pain assessment
Assay type: in vivo, human
Conditions: Fabry males; for patients with decreased severity of abdominal pain / patients with improved overall bodily pain scores (SF-36) / patients with reduced number of days with gastrointestinal pain: 15 mg/day oral
Description: Each sample was scored independently by 3 pathologists for the presence of GL-3 inclusions on a four-point scale, and rated as 0 (no/trace), 1 (mild), 2 (moderate), or 3 (severe) according to Eng et al., N. Engl. J. Med. 345:9-16 (2001). A single score per patient per time point was derived by taking the score rated by the majority of the three pathologists. If a majority score could not be derived, then the median score was used (resulting in some fractional scores). Plasma samples were also analyzed for GL-3, lyso-GL-3, GL-1 and GM3 at baseline and weeks 12, 26, 52 and 156. Pain scores and abdominal symptoms were analyzed at baseline and weeks 12, 26, 52, 104 and 156 using the SF-36 scoring protocol.
Patients were assessed using the Short Form-36 (SF-36) questionnaire on numerous visits from baseline to week 156. This is a 36-item questionnaire used to measure 8 various aspects of health (vitality, physical functioning, bodily pain, general health perceptions, physical role functioning, emotional role functioning, social role functioning and mental health). The score for each of the eight aspects ranges from 0 (maximum disability) to 100 (no disability), and thus, higher scores indicate good health condition. In addition, gastrointestinal symptoms, including abdominal pain, abdominal distention, and bowl movements, were assessed using a modified version of the inflammatory bowel severity scoring system. Particular questions asked as part of these assessments included: (1) whether the patient suffered abdominal pain within the last ten days, (2) what was the severity of abdominal pain suffered in the last ten days using a 0 (no pain) to 100 (very severe pain) scale, and (3) on how many days within the last ten days did the patient have abdominal pain.

CC(C)(NC(=O)O[C@@H]1CN2CCC1CC2)c1csc(-c2ccc(F)cc2)n1 [Compound 2, (S)-quinuclidin-3-yl (2-(2-(4-fluorophenyl)thiazol-4-yl)propan-2-yl)carbamate]
abdominal pain and discomfort (15 mg/day): consistently reduces abdominal pain and discomfort | patients with decreased severity of abdominal pain (week 26, patients with gastrointestinal pain at baseline): four out of five | patients with improved overall bodily pain scores (SF-36) (week 26): Seven of nine | patients with reduced number of days with gastrointestinal pain (week 26): five of five | patients with decreased severity of abdominal pain (week 156, patients with gastrointestinal pain at baseline): four out of four | patients with improved overall bodily pain scores (SF-36) (week 156): three of six | patients with reduced number of days with gastrointestinal pain (week 156): three of four
